This is an account of results in patent US20190381025A1, “SOLID DISPERSIONS OF (R)-N-((4-METHOXY-6-METHYL-2-OXO-1,2-DIHYDROPYRIDIN-3-YL)METHYL)-2-METHYL-1-(1-(1-(2,2,2-TRIFLUOROETHYL)PIPERIDIN-4-YL)ETHYL)-1H-INDOLE-3-CARBOXAMIDE” (Constellation Pharmaceuticals, Inc., priority 2017, published 2019).

The data set can be described thus: pharmacokinetic studies (PK) of solid dispersions in fasted, famotidine or pentagastrin pre-treated dogs. The data set is classed as in vivo. The settings on record: above pH 2.5; dogs following pre-treatment with famotidine (FIG. 1). As to the method: Several rounds of pharmacokinetic studies (PK) were performed and included four diverse solid dispersions comprising 50 wt % amorphous (R)—N-((4-methoxy-6-methyl-2-oxo-1,2-dihydropyridin-3-yl)methyl)-2-methyl-1-(1-(1-(2,2,2-trifluoroethyl)piperidin-4-yl)ethyl)-1H-indole-3-carboxamide and PVP, PVP-PA with NaHCO3, HPMC, and HPMC-AS polymer systems, in fasted, famotidine treated dogs at a 30 mg/kg dose.
All solid dispersions were prepared as aqueous suspensions at 60 mg/mL in the toxicology vehicle, 0.5% MC/0.1% Tween 80 and does with 30 minutes of preparation. All dogs tested were carried over from study to study.

Turning to `COc1cc(C)[nH]c(=O)c1CNC(=O)c1c(C)n([C@H](C)C2CCN(CC(F)(F)F)CC2)c2ccccc12` [(R)—N-((4-methoxy-6-methyl-2-oxo-1,2-dihydropyridin-3-yl)methyl)-2-methyl-1-(1-(1-(2,2,2-trifluoroethyl)piperidin-4-yl)ethyl)-1H-indole-3-carboxamide], the absorption result is recorded as “reduced absorption”.
